The source of these data is patent publication US10849904B2, “Methods for treatment of retinal disease by photoreceptor gene expression modulation” (University of Washington, priority 2015, dated 2020).

The structures appear in SMILES notation.

For one assay, the system named is Thrb (Trβ2). In words: Cone gene expression, Thrb (FIG. 5).
In another assay the test system is retinas of adult mice. In words: Intravitreal injection in adult mice, qPCR and Western blot. The assay is classed as in vivo, mouse. The text has this:
Conditional deletion of Nr2e3 in mature photoreceptors has not been reported; however, deletion of Nrl in mature photoreceptors leads to a partial “reprogramming” of the rods: the cells have reduced rod gene expression and an increase in the expression of some cone genes. Because PR1 reduces rod gene expression, including Nrl, in rods even at late stages in their development (P12), it was postulated that PR1 might have similar effects in the retinas of adult mice. To determine if PR1 affects adult photoreceptor gene expression in vivo, intravitreal injections in one eye of an adult mouse (>P21) were made and compared expression to the other eye.
RNA was isolated using TRIzol (Invitrogen) and cDNA was synthesized using the iScript cDNA synthesis kit (Bio-Rad) following an intervening DNase treatment with RQ1 RNase-free DNase (Promega). SSO Fast (Bio-Rad) was used for quantitative real-time PCR. For analysis, values were normalized to Gapdh and ΔΔCt between DMSO and compound-treated samples was expressed as percent of DMSO treated controls (100*2^ΔΔCt). Two-way Student's t-tests were performed on ΔCt values.
Retinal explants or retinas were homogenized in lysis buffer (50 mM Tris, 100 mM NaCl, 5 mM EDTA, 0.1% SDS, 1% Triton X-100, 2.5% glycerol, and 1× protease inhibitor cocktail) and equal amounts of protein samples were loaded and run in a 4-20% SDS gel (Bio-Rad). Protein was transferred to a PVDF membrane (Thermo Fisher Scientific), blocked (5% BSA and 0.1% Tween 20 in 1×PBS) and stained with primary antibodies (Supplemental Table S2) and then HRP-conjugated secondaries (Bio-Rad) diluted in blocking solution. Signals were visualized on X-ray film with SuperSignal West Dura Extended Duration Substrate (Thermo Fisher Scientific) and quantified using ImageJ software (NIH).
For intravitreal injections, adult mice (>P21) were anesthetized with isoflurane and injected with 1.5 μl of 10 mM PR1 using a 32-gauge Hamilton needle. Postnatal pups were injected intraperitoneally (IP) with 20 μl of 50 mM PR1 or 20 μl of DMSO at P2 or P3 with a 32-gauge Hamilton needle. Timed-pregnant dams were injected IP with 100 μl of 50 mM PR1 at E14 and E17 with a BD insulin syringe.
A general note: Quantitative PCR measures a nucleic acid by following its amplification.

Assay [1] concerns Human retinal explants from 113 day post-conception fetuses. In words: Human fetal retinal explant culture, qPCR for RHO expression. Format: cell-based. As to conditions: 10 μM, vs DMSO. The protocol: Nr2e3 loss-of-function mutations lead to a reduction in rod gene expression. To determine whether the same was true for PR1 (FIG. 6D), explant cultures of P12 retina as above were treated and assayed for other rod photoreceptor genes. After 2 days in culture, PR1 decreased the expression of the rod specific genes Nrl, Nr2e3, Rho, Gnat1, and Pde6b compared to DMSO treatment by qPCR analysis (FIG. 6C). […] To determine the dose-response relationship between PR1 concentration and expression of rod genes, retinas from P12 mice were explanted in media containing DMSO or 0.1, 1, 5, or 10 μM PR1 for 2-3 days and assayed Nrl, Nr2e3, and Rho expression by qPCR. […] PR1 was tested to determine whether it could cause a reduction in Rho expression in human rod photoreceptors as well. Pairs of 113 day post-conception retinas were explanted in media with DMSO or 10 μM PR1 for 7 or 23 days. […]
RNA was isolated using TRIzol (Invitrogen) and cDNA was synthesized using the iScript cDNA synthesis kit (Bio-Rad) following an intervening DNase treatment with RQ1 RNase-free DNase (Promega). SSO Fast (Bio-Rad) was used for quantitative real-time PCR. For analysis, values were normalized to Gapdh and ΔΔCt between DMSO and compound-treated samples was expressed as percent of DMSO treated controls (100*2^ΔΔCt). […]

Setting [2] is: adult mice (>P21), two intravitreal injections over four days, vs other eye.
The mark [3] stands for this setting: adult retinas, intravitreal injection.

As for `Cc1cc(C)cc(NC(=O)CCc2nc3sc4c(c3c(=O)[nH]2)CCCC4)c1` [PR1, N-(3,5-dimethylphenyl)-3-(4-oxo-5,6,7,8-tetrahydro-3H-[1]benzothiolo[2,3-d]pyrimidin-2-yl)propanamide], the “cone gene expression, Thrb (Trβ2)” value in the assay with Thrb (Trβ2) was “increase”. In the assay on retinas of adult mice (setting [2]), the “Rho mRNA expression by qPCR” value was “decreased” and the “rhodopsin protein by Western blot” value is given as “decreased”. Moreover, in the assay on retinas of adult mice (setting [3]), the S opsin result is “not observed” and the “expression of the cone photoreceptor marker TRβ2” value was “increased”. The Rho expression entry in assay [1] (7 days in culture) was “decreased”. In addition, the Rho expression result in assay [1] (23 days in culture) is “decreased”.
